Reference: BindingDB's records for doi:10.1007/s00044-011-9594-4 (n/a, 2012)

Target: Telomerase reverse transcriptase (Homo sapiens, UniProt O14746)
Test: Inhibition of telomerase (unknown origin)

Chain of Telomerase reverse transcriptase (O14746 whole entry): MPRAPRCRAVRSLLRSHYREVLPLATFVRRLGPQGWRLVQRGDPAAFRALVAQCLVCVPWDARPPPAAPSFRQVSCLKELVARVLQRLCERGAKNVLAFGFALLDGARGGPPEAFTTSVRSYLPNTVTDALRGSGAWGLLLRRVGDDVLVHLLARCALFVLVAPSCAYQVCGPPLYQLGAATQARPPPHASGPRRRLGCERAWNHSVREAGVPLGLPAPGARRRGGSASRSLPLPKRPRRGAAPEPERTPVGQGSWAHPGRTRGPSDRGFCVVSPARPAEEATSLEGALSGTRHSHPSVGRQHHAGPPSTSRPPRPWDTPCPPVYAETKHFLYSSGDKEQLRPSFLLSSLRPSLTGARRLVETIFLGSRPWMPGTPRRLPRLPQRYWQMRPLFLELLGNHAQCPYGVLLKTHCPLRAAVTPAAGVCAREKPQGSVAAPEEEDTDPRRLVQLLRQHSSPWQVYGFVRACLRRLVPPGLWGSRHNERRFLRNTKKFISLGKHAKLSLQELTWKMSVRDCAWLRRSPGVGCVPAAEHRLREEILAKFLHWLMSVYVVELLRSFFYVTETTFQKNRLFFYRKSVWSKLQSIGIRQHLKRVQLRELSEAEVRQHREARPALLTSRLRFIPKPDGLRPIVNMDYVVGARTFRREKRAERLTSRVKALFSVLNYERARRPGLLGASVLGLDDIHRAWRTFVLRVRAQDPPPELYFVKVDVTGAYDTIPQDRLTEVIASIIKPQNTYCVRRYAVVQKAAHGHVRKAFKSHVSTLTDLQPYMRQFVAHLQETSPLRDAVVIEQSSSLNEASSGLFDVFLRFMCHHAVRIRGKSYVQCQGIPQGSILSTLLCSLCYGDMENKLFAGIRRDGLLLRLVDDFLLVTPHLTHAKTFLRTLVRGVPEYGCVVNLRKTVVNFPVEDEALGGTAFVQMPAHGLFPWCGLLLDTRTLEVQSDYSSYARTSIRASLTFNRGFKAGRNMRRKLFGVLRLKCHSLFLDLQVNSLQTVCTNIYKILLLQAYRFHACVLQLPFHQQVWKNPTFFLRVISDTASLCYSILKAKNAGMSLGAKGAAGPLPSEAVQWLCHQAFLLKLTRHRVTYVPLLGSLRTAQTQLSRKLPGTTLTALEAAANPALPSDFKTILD

Row | IC50 [nM] | Compound
1 | 5.01 | CC1=C2NC(=C3CSC(=N3)c3coc(n3)-c3coc(n3)-c3coc(n3)-c3coc(n3)-c3coc(n3)-c3nc2oc3C)O1 [telomestatin]
2 | 40.8 | CSc1nc(Nc2ccc3nc(C)cc(N(C)C)c3c2)nc(Nc2ccc3nc(C)cc(N(C)C)c3c2)n1
3 | 28.2 | CN(C)CCCNCc1ccc2nc3ccc4cc5cc(CNCCCN(C)C)ccc5nc4c3cc2c1
